{
  "source": "paper PMC7851449",
  "about": "“An extracellular lipase from Amycolatopsis mediterannei is a cutinase with plastic degrading activity” (Computational and Structural Biotechnology Journal, 2021)",
  "molecular_target": "T1, AML (Amycolatopsis mediterranei lipase) (Amycolatopsis mediterranei, UniProt A0A0H3DES9)",
  "T1 construct": "gene AMED_7492; recombinant, pET-49b(+), E. coli BL21(DE3) cytosol; glutathione agarose, tag cut off with PreScission protease",
  "T1 sequence (A0A0H3DES9 entry or part of it)": "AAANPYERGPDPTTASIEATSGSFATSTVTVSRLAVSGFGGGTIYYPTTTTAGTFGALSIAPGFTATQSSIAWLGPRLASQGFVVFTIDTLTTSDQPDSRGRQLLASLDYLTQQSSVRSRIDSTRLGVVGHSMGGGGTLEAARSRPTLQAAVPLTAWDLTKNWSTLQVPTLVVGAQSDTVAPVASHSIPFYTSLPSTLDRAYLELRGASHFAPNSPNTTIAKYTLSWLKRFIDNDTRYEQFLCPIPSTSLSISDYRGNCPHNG",
  "assay": "p-nitrophenyl ester hydrolysis assay, relative activity",
  "format": "biochemical",
  "conditions": "50 mM Tris pH 7.5, 37 °C, 10 min, 20 mM substrate",
  "data": [
    {"smiles": "CC(=O)Oc1ccc([N+](=O)[O-])cc1", "note": "[p-nitrophenyl acetate]", "values": [
      {"measurement": "relative activity (%)", "result": "experimentally low activity of AML observed towards p-nitrophenyl acetate"}
    ]},
    {"smiles": "CCCCCCCC(=O)Oc1ccc([N+](=O)[O-])cc1", "note": "[p-nitrophenyl octanoate]", "values": [
      {"measurement": "relative activity (%)", "setting": "reference substrate for relative activity", "result": "relative activity (%) was calculated using p-nitrophenyl octanoate (C-8) as the reference, highest activity, substrate"}
    ]}
  ]
}
